Source: patent US20230149732A1, “COMBINED NITRITE AND LIGHT TREATMENT TO PREVENT DEVICE THROMBOSIS” (Wake Forest University Health Sciences, priority 2021, published 2023)
Where two headings read alike, the source gives them in different places.

Key:
platelet activation = assay: Inhibition of platelet activation, with or without RBCs (flow cytometry); format: cell-based; conditions: for effect on nitrite-mediated inhibition of platelet activation by RBCs: NO scavenger or RBC surface thiol blocker added
Source text: This disclosure also teaches that far-red and near infrared light dramatically enhance nitrite bioactivation by RBCs. Far-red light (about 600-750 nm) and near infrared light (about 700-1400 nm) have been used clinically for improved wound healing, tissue generation, reduction of inflammation, and increasing cerebral blood flow to improve cognition. The mechanism for these actions has been attributed generally to increased blood flow, tissue oxygenation, and angiogenesis secondary to improved mitochondrial function attributed to cytochrome c oxidase redox state and function. However, it was not clear how improvement in cytochrome c oxidation state could account for increased blood flow and other effects of infrared/far-red light. […] The data shown in FIG. 2 strongly supports this premise (note scales). Previous work using inhibition of platelet activation as a measure of nitrite bioactivation has shown that (i) RBCs are necessary for nitrite-mediated inhibition of platelet activation (while other NO donors' ability to inhibit platelet activation is blunted by the presence of RBCs), (ii) this action is abrogated by an NO scavenger, (iii) this action is achieved with plasma levels of nitrite easily attained through dietary nitrate interventions, and (iv) this action involves RBC surface thiols. […] This is attributed to accumulating steady state NO species on the surface of the RBCs. The effects of far-red light without nitrite treatment are small and variable, perhaps reflecting small amounts of nitrite present at steady state and varying between individuals due to diet and other factors.
Nitrite addition to activated platelets in the absence of RBCs has no effect (FIG. 2A—note scale is expanded). […] This interaction is depicted in FIG. 1. It has been shown that Hb is the primary erythrocytic nitrite reductase and that nitrite bioactivation by RBCs involves NO. […] Nitrite is the best suited NO donor for treating thrombosis as it requires the presence of RBCs to work while others efficacy is blunted by RBCs (via the reaction described in Equation 2).
where the ferric hemin reversibly binds NO, GSH reduces the hemin and forms a thiyl radical which then reacts with NO, similar to a mechanism proposed for DNIC formation. The formation of the thiyl radical is supported by lower GSNO yield when the thiyl radical trap 5,5-dimethyl-1-pyrroline N-oxide (DMPO) is added (FIG. 4D). Thus, this system of hemin, NO and thiol (all present in the RBC after nitrite addition) yield both species of interest: nitrosothiols and heme-nitrosyls (which can bind to a surface thiol). Studies using RBCs. […] This inhibition was abrogated by pre-treatment with the thiol binding agent N-ethyl maleimide (NEM) (FIG. 5).

oxygenated Hb (OxyHb) = oxygenated Hb (OxyHb) (Homo sapiens, UniProt P68871+P69905); conditions: NO + HbO2; cited from earlier work
Sequence of oxygenated Hb (OxyHb) (P69905 2-142 limits assumed): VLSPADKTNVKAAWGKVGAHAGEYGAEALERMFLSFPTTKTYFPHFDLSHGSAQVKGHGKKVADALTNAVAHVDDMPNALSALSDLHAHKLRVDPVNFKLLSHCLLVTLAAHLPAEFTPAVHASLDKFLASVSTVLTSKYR
Sequence of oxygenated Hb (OxyHb) (P68871 2-147 limits assumed): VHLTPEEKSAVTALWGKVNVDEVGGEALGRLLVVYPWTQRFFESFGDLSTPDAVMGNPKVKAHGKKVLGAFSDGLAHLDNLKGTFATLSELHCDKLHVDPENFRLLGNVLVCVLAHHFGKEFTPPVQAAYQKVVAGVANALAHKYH

clotting in blood = conditions: TEG, RBCs present
Protocol: (§1) The effects of nitrite and light on reducing clotting in blood were conducted by comparing sham, light alone, nitrite alone and the combination.

[1] = test system: device thrombosis in extracorporeal circuit
Source text: Two Mito MD LED sources were employed with the tubing sandwiched in between. The power of the LEDs is reported as 100 mW/cm^2 at 6 inches from the device and we measured 35 mW/cm^2 at this distance and 230 mW/cm^2 directly at the surface. […] The system was also maintained at the desired temperature using a circulating water bath attached to the oxygenator representative of use conditions. The blood was deoxygenated by flowing nitrogen through the oxygenator to mimic venous blood from a real patient and hemoglobin saturation was about 70% or so, as tested using absorption spectroscopy and our integrating sphere detector for turbid samples.
Disclosed herein are outcome measures to test the efficacy of the device, including: • (1) Patency of the device. Whether enough clotting will occur to impede flow enough so that the experiment needs to be stopped before six hours of testing. The time to stopping was recorded. • (2) Pressure as a function of time. The pressure in the circuit was recorded every 15 minutes with higher pressures indicating occlusive clotting. • (3) Visual inspection for clotting. Tubing was examined thoroughly every 15 minutes with flashlights and photographs were taken to record the size and number of visual clots. • (4) Blood aliquots were collected every 15 minutes to measure oxygenation state of hemoglobin (so the nitrogen flow can be adjusted). A spectrometer was used with an integrating sphere that collected scattered light to get true absorption of turbid samples. […] RBCS were sedimented and hemoglobin concentration in the supernatant determined by absorption spectroscopy. • (7) Platelet count was assessed as part of a complete blood count. Platelet count goes down as platelets adhere and aggregate in the system.
In addition, nitrite was measured to assess the effective dose that a patient may encounter. […] For all experiments, the same blood was used for control and treatment and the same amount of calcium infused at the same timepoints.
The system was tested by comparing treatment to control in terms of patency, platelet count, and platelet activation.

[2] = molecular target: T1, partially deoxygenated hemoglobin (Homo sapiens, UniProt P68871+P69905); conditions: cited from earlier work
T1 sequence (P69905 2-142 limits assumed): as the sequence (P69905 2-142 limits assumed) above
T1 sequence (P68871 2-147 limits assumed): as the sequence (P68871 2-147 limits assumed) above

[3] = molecular target: T1, partially deoxygenated hemoglobin; conditions: hemoglobin 10 mM (in heme) in blood, pseudo first order
Protocol: In addition, nitrite was measured to assess the effective dose that a patient may encounter. […] For all experiments, the same blood was used for control and treatment and the same amount of calcium infused at the same timepoints. For the example shown in FIG. 11A, no calcium was infused. […] For the example shown in FIG. 11B, calcium additions was added at the 1.5 hour mark and at each of the next two 0.5 hour intervals (1.5 mM; 0.75 mM; and 0.375 mM).

platelet adhesion = conditions: dual treatment: nitrite plus far-red light
Source text: (§2) Also disclosed herein is a mechanism though which […] potentiates the anti-thrombotic effects of far-red light. […] The effects of combining far-red light and nitrite in inhibiting several different measures of clotting using different agonists are disclosed herein.

clotting = test system: clotting
Protocol: as §2, §1

deoxygenated RBCs = assay: Heme nitrosyl export from deoxygenated RBCs incubated with nitrite (tri-iodide chemiluminescence assay); format: cell-based; conditions: with versus without hemopexin

Molecule: CC1(C)N([O])C(c2ccc(C(=O)O)cc2)=[N+]([O-])C1(C)C [CPTIO]
- effect on nitrite-mediated inhibition of platelet activation by RBCs (platelet activation): abrogated

Molecule: [N]=O [NO, Nitric oxide]
- rate constant (oxygenated Hb (OxyHb)): 6-8×10^7 M^−1s^−1

Molecule: CCN1C(=O)C=CC1=O [NEM, N-ethyl maleimide]
- effect on platelet inhibition by SNAP-treated RBCs (platelet activation; pre-treatment with thiol binding agent): abrogated

Molecule: O=NO [nitrite]
- rate of clot growth (clotting in blood): decreasing the rate of clot growth
- time to initial fibrin formation (R-time) (clotting in blood): increasing the time to initial fibrin formation
- effect on platelet activation (platelet activation; RBCs present, nitrite alone): decreases platelet activation
- inhibition of platelet activation (platelet activation; RBCs present, nitrite plus far-red light 660 nm, ~5 min): dramatically enhances nitrite bioactivation by RBCs
- effect on platelet activation (platelet activation; nitrite added to activated platelets, absence of RBCs): has no effect
- survival time of treated system longer than control circuit, average ([1]; combined nitrite and red light): 220%
- decrease in the number of platelets, first to last sample ([1]; treated system (nitrite plus light), complete blood count, averaged): 32%
- pressure in the circuit ([1]; whole blood, calcium infused, nitrite plus far-red light from the 1.5 hour mark): decreased to less than that of the control circuit
- bimolecular rate constant [2]: 1 M⁻¹ s⁻¹
- lifetime of the nitrite [3]: about 100 seconds
- platelet adhesion (platelet adhesion): decreases platelet adhesion
- reduction of clotting (clotting; combination of nitrite and light, all assays): universally effective in reducing clotting
- reduction of clotting (clotting; monotherapy): mixed effects

Molecule: CC(=O)N[C@H](C(=O)O)C(C)(C)SN=O (racemic) [SNAP, S-Nitroso-N-acetylpenicillamine]
- platelet activation with RBCs treated with nitrosating agent, then washed (platelet activation; RBCs treated with SNAP, excess removed): caused the RBCs to inhibit platelet activation
- effect of light illumination on platelet activation with treated RBCs (platelet activation; RBCs treated, washed, then illuminated): Light potentiates effects

Molecule: O=C(O)c1cc(SSc2ccc([N+](=O)[O-])c(C(=O)O)c2)ccc1[N+](=O)[O-] [DTNB]
- effect on nitrite-mediated inhibition of platelet activation by RBCs (platelet activation): abrogates inhibition of platelets

B1: hemopexin: a plasma protein with extremely high affinity for free heme (protein, UniProt P02790 24-462, looked up)
Hemopexin: TPLPPTSAHGNVAEGETKPDPDVTERCSDGWSFDATTLDDNGTMLFFKGEFVWKSHKWDRELISERWKNFPSPVDAAFRQGHNSVFLIKGDKVWVYPPEKKEKGYPKLLQDEFPGIPSPLDAAVECHRGECQAEGVLFFQGDREWFWDLATGTMKERSWPAVGNCSSALRWLGRYYCFQGNQFLRFDPVRGEVPPRYPRDVRDYFMPCPGRGHGHRNGTGHGNSTHHGPEYMRCSPHLVLSALTSDNHGATYAFSGTHYWRLDTSRDGWHSWPIAHQWPQGPSAVDAAFSWEEKLYLVQGTQVYVFLTKGGYTLVSGYPKRLEKEVGTPHGIILDSVDAAFICPGSSRLHIMAGRRLWWLDLKSGAQATWTELPWPHEKVDGALCMEKSLGPNSCSANGPGLYLIHGPNLYCYSDVEKLNAAKALPQPQNVTSLLGCTH
- NO species in the supernatant (deoxygenated RBCs): significantly greater NO
